Laboratory results as given in ChEMBL document CHEMBL1201862, “PubChem BioAssay data set” (2004).
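In this assay, cells in 96-well plates receive the compound at five concentrations for 48 hours. Endpoints are linearly interpolated between the surrounding concentrations. Abbreviation: GI50, concentration required for 50% inhibition of growth.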 The source made the active and inactive calls. Rule as the data show it: active = GI50 up to about 1.1 µM and inactive = higher.

Assays:
Assay in all cases: NCI-60 cell line screen, 48 h
HCT-15 = test system: HCT-15
RXF 393 = test system: RXF 393
OVCAR-5 = test system: OVCAR-5
SF-295 = test system: SF-295
OVCAR-8 = test system: OVCAR-8
NCI-H23 = test system: NCI-H23
M14 = test system: M14
HCT-116 = test system: HCT-116
PC-3 = test system: PC-3
UACC-257 = test system: UACC-257
SK-OV-3 = test system: SK-OV-3
DU-145 = test system: DU-145
UO-31 = test system: UO-31
SF-539 = test system: SF-539
LOX IMVI = test system: LOX IMVI
SNB-19 = test system: SNB-19
OVCAR-4 = test system: OVCAR-4
MDA-MB-435 = test system: MDA-MB-435
A498 = test system: A498
NCI-H460 = test system: NCI-H460
A549 = test system: A549
TK-10 = test system: TK-10
OVCAR-3 = test system: OVCAR-3
T47D = test system: T47D
HT-29 = test system: HT-29
CAKI-1 = test system: CAKI-1
SN12C = test system: SN12C
HCC 2998 = test system: HCC 2998
HOP-92 = test system: HOP-92
NCI-H226 = test system: NCI-H226
MCF7 = test system: MCF7
SR = test system: SR
U-251 = test system: U-251
SK-MEL-5 = test system: SK-MEL-5
IGROV-1 = test system: IGROV-1
CCRF-CEM = test system: CCRF-CEM
BT-549 = test system: BT-549
HOP-62 = test system: HOP-62
ACHN = test system: ACHN
SF-268 = test system: SF-268
HL-60 = test system: HL-60
KM12 = test system: KM12
SNB-75 = test system: SNB-75
SK-MEL-28 = test system: SK-MEL-28
MDA-MB-231 = test system: MDA-MB-231
UACC-62 = test system: UACC-62
NCI/ADR-RES = test system: NCI/ADR-RES
K562 = test system: K562
SW-620 = test system: SW-620
Hs-578T = test system: Hs-578T
MOLT-4 = test system: MOLT-4
COLO 205 = test system: COLO 205
NCI-H522 = test system: NCI-H522
SK-MEL-2 = test system: SK-MEL-2
EKVX = test system: EKVX
786-0 = test system: 786-0

## CC(=O)O[C@H]1[C@@H](OC2CCCC2(c2ccccc2)c2ccccc2)O[N+]([O-])=C[C@@]12COCc1cc3c(cc12)OCO3 (stereo partly specified)
HCT-15
  GI50: 6.37 µM
RXF 393
  GI50: 5.74 µM (inactive)
OVCAR-5
  GI50: 18.7 µM (inactive)
SF-295
  GI50: 5.25 µM (inactive)
OVCAR-8
  GI50: 4.24 µM (inactive)
NCI-H23
  GI50: 13.2 µM (inactive)
M14
  GI50: 11.2 µM (inactive)
HCT-116
  GI50: > 21.2 µM (inactive)
PC-3
  GI50: 4.2 µM (inactive)
UACC-257
  GI50: 18.2 µM (inactive)
SK-OV-3
  GI50: 30.1 µM (inactive)
DU-145
  GI50: 6.32 µM (inactive)
UO-31
  GI50: 4.42 µM (inactive)
SF-539
  GI50: 93.3 µM (inactive)
LOX IMVI
  GI50: 2.72 µM (inactive)
SNB-19
  GI50: 15.1 µM (inactive)
OVCAR-4
  GI50: 1.49 µM (inactive)
MDA-MB-435
  GI50: 3.66 µM (inactive)
A498
  GI50: 1.99 µM (inactive)
NCI-H460
  GI50: 7.06 µM (inactive)
A549
  GI50: 8.57 µM (inactive)
TK-10
  GI50: 7.85 µM (inactive)
OVCAR-3
  GI50: 1.89 µM (inactive)
T47D
  GI50: 4.23 µM (inactive)
HT-29
  GI50: 2.77 µM (inactive)
CAKI-1
  GI50: 4.32 µM (inactive)
SN12C
  GI50: 3.78 µM (inactive)
HCC 2998
  GI50: 3.25 µM (inactive)
HOP-92
  GI50: 5.13 µM (inactive)
NCI-H226
  GI50: 4.79 µM (inactive)
MCF7
  GI50: 6.38 µM (inactive)
SR
  GI50: 2.32 µM (inactive)
U-251
  GI50: 7.48 µM (inactive)
SK-MEL-5
  GI50: 4.6 µM (inactive)
IGROV-1
  GI50: 3.54 µM (inactive)
CCRF-CEM
  GI50: 2.83 µM (inactive)
BT-549
  GI50: 23 µM (inactive)
HOP-62
  GI50: 2.99 µM (inactive)
ACHN
  GI50: 7.85 µM (inactive)
SF-268
  GI50: 2.87 µM (inactive)
HL-60
  GI50: 3.24 µM (inactive)
KM12
  GI50: 4.14 µM (inactive)
SNB-75
  GI50: 4.11 µM (inactive)
SK-MEL-28
  GI50: 6.78 µM (inactive)
MDA-MB-231
  GI50: 6.12 µM (inactive)
UACC-62
  GI50: 8.39 µM (inactive)
NCI/ADR-RES
  GI50: 3.52 µM (inactive)
K562
  GI50: 2.92 µM (inactive)
SW-620
  GI50: 7.03 µM (inactive)
Hs-578T
  GI50: 2.65 µM (inactive)
MOLT-4
  GI50: 2.52 µM (inactive)
COLO 205
  GI50: > 32.4 µM (inactive)
NCI-H522
  GI50: 1.98 µM (inactive)
SK-MEL-2
  GI50: 4.17 µM (inactive)
EKVX
  GI50: 3.02 µM (inactive)
786-0
  GI50: 6.58 µM (inactive)
